Test: xn = mol fraction of the nth substance listed
Settings: 101 kPa, Liquid; for speed of sound: Sing-around technique in a fixed-path interferometer; for mass density: Vibrating tube method; for viscosity: Capillary tube (Ostwald / Ubbelohde) method

NCCN [ethane-1,2-diamine] + CCCCCCCCCCO
Settings | mass density [kg/m3] | speed of sound [m/s] | viscosity [mPa·s]
293.15 K, x1 = 0.0424 | 831.534 | 1402.1 | –
293.15 K, x1 = 0.1063 | 834.058 | 1408.9 | –
293.15 K, x1 = 0.1512 | 835.766 | 1414.8 | –
293.15 K, x1 = 0.1995 | 837.56 | 1420.8 | –
293.15 K, x1 = 0.2511 | 839.445 | 1427.1 | –
293.15 K, x1 = 0.2957 | 841.022 | 1432.6 | –
293.15 K, x1 = 0.3961 | 844.521 | 1445.5 | –
293.15 K, x1 = 0.4929 | 848.18 | 1459.7 | –
293.15 K, x1 = 0.609 | 853.458 | 1481.8 | –
293.15 K, x1 = 0.6962 | 858.67 | 1504.6 | –
293.15 K, x1 = 0.7975 | 866.833 | 1541.1 | –
293.15 K, x1 = 0.855 | 872.943 | 1570.1 | –
293.15 K, x1 = 0.9054 | 879.622 | 1602.3 | –
293.15 K, x1 = 0.9591 | 888.704 | 1648.1 | –
298.15 K, x1 = 0.0424 | 828.092 | 1384.9 | 10.96
298.15 K, x1 = 0.1063 | 830.545 | 1391.6 | 10.6
298.15 K, x1 = 0.1512 | 832.202 | 1397.5 | 10.36
298.15 K, x1 = 0.1995 | 833.938 | 1403.3 | 9.921
298.15 K, x1 = 0.2511 | 835.76 | 1409.5 | 9.382
298.15 K, x1 = 0.2957 | 837.289 | 1414.9 | 8.821
298.15 K, x1 = 0.3961 | 840.693 | 1427.6 | 7.355
298.15 K, x1 = 0.4929 | 844.262 | 1441.5 | 6.047
298.15 K, x1 = 0.609 | 849.415 | 1463.1 | 4.514
298.15 K, x1 = 0.6962 | 854.51 | 1485.4 | 3.644
298.15 K, x1 = 0.7975 | 862.525 | 1521.3 | 2.699
298.15 K, x1 = 0.855 | 868.535 | 1549.7 | 2.198
298.15 K, x1 = 0.9054 | 875.128 | 1581.4 | 1.874
298.15 K, x1 = 0.9591 | 884.107 | 1626.4 | 1.598
303.15 K, x1 = 0.0424 | 824.641 | 1367.8 | 9.008
303.15 K, x1 = 0.1063 | 827.029 | 1374.7 | 8.713
303.15 K, x1 = 0.1512 | 828.635 | 1380.3 | 8.442
303.15 K, x1 = 0.1995 | 830.31 | 1386.1 | 8.104
303.15 K, x1 = 0.2511 | 832.075 | 1392.1 | 7.658
303.15 K, x1 = 0.2957 | 833.56 | 1397.5 | 7.229
303.15 K, x1 = 0.3961 | 836.868 | 1409.8 | 6.168
303.15 K, x1 = 0.4929 | 840.345 | 1423.5 | 5.062
303.15 K, x1 = 0.609 | 845.37 | 1444.5 | 3.892
303.15 K, x1 = 0.6962 | 850.353 | 1466.5 | 3.107
303.15 K, x1 = 0.7975 | 858.212 | 1501.6 | 2.343
303.15 K, x1 = 0.855 | 864.125 | 1529.5 | 1.985
303.15 K, x1 = 0.9054 | 870.631 | 1560.8 | 1.66
303.15 K, x1 = 0.9591 | 879.506 | 1604.9 | 1.403
308.15 K, x1 = 0.0424 | 821.178 | 1350.9 | 7.295
308.15 K, x1 = 0.1063 | 823.508 | 1358 | 7.087
308.15 K, x1 = 0.1512 | 825.064 | 1363.4 | 6.852
308.15 K, x1 = 0.1995 | 826.684 | 1369.1 | 6.563
308.15 K, x1 = 0.2511 | 828.392 | 1375 | 6.202
308.15 K, x1 = 0.2957 | 829.829 | 1380.3 | 5.881
308.15 K, x1 = 0.3961 | 833.045 | 1392.3 | 5.028
308.15 K, x1 = 0.4929 | 836.429 | 1405.6 | 4.23
308.15 K, x1 = 0.609 | 841.323 | 1426.1 | 3.288
308.15 K, x1 = 0.6962 | 846.189 | 1447.5 | 2.661
308.15 K, x1 = 0.7975 | 853.898 | 1481.9 | 2.032
308.15 K, x1 = 0.855 | 859.714 | 1509.4 | 1.708
308.15 K, x1 = 0.9054 | 866.124 | 1540.1 | 1.485
308.15 K, x1 = 0.9591 | 874.895 | 1583.6 | 1.238
313.15 K, x1 = 0.0424 | 817.698 | 1334.2 | –
313.15 K, x1 = 0.1063 | 819.969 | 1341.6 | –
313.15 K, x1 = 0.1512 | 821.476 | 1346.8 | –
313.15 K, x1 = 0.1995 | 823.045 | 1352.3 | –
313.15 K, x1 = 0.2511 | 824.7 | 1358.1 | –
313.15 K, x1 = 0.2957 | 826.089 | 1363.2 | –
313.15 K, x1 = 0.3961 | 829.21 | 1375 | –
313.15 K, x1 = 0.4929 | 832.502 | 1387.9 | –
313.15 K, x1 = 0.609 | 837.271 | 1407.9 | –
313.15 K, x1 = 0.6962 | 842.017 | 1428.6 | –
313.15 K, x1 = 0.7975 | 849.57 | 1462.5 | –
313.15 K, x1 = 0.855 | 855.287 | 1489.4 | –
313.15 K, x1 = 0.9054 | 861.605 | 1519.8 | –
313.15 K, x1 = 0.9591 | 870.264 | 1562.4 | –

Reference: the NIST ThermoML archive (doi:10.1016/j.jct.2012.01.022)
